Source: PMC11851430, “Workflow for E3 Ligase Ligand Validation for PROTAC Development” (ACS Chemical Biology, 2025)

How the values were obtained:
[1] = biological target: T1, AURKA (Homo sapiens, UniProt O14965); experiment: Western blot assay; type: cell-based; design: endogenous in cells; host or cells: Jurkat; conditions: Jurkat cells, 6 h
T1 sequence (O14965 1-403): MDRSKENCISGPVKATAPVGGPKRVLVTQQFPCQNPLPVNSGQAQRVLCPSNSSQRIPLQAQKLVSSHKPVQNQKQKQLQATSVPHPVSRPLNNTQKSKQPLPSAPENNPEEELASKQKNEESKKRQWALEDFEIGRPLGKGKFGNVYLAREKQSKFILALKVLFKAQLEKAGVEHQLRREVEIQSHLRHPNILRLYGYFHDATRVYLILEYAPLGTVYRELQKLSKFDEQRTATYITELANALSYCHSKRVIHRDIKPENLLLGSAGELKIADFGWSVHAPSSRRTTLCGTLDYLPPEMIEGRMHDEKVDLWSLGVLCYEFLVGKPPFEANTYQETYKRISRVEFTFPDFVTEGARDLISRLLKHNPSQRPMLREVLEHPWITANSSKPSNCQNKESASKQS
Experimental: Two mL of Jurkat cells were seeded into 6 well plates (Greiner) at a density of 5·10 5 cells/mL.
The following day, cells were treated with compounds at according concentrations or DMSO for 6 hours and then lysed with 6 M Urea at 4 °C for 20 minutes. The lysates were centrifuged for 15 minutes at 16000 g and the supernatant was collected to perform the Western-Blot.
Protein quantification was performed using nanodrop One. The SDS samples were prepared […]
The samples were separated by a BIS-TRIS polyacrylamide gel polyacrylamide gel, 100 V for 1:45) followed by transfer to PVDF membranes (Millipore) at 350 mA for 140 minutes. The membranes were blocked using 5%wt/vol BSA (in TBS-T, 20 mM Tris-HCl, pH 7.5, 150 mM NaCl and 0.1% (vol/vol) Tween 20) at room temperature for 1 hour.
The blots were incubated with respective primary antibodies at 1:1000 dilution (Cell Signaling technologies: Aurora A (D3E4Q), ITK (2F12) and GAPDH (D4C6R)) at 4 °C overnight. The blots were washed with TBS-T thrice and incubated with 1:5000 dilution of horseradish peroxidase (HRP)-labelled respective secondary antibodies (Cell Signaling technologies, Anti- […]
The blots were washed with TBS-T thrice and then incubated with chemiluminescent HRP substrate (Bio-Rad) for 2 minutes. The blots were imaged and the signals were detected using the Amersham ImageQuant 800 (Cytiva).
Cell culture. Human MV4-11 ([…]) and human Jurkat ([…]) cells were cultured in RPMI- […]
°C in 5% CO2. Both media were supplemented with 10% FBS and 1% penicillin/streptomycin. […]

[2] = biological target: T2, CAMK1DA (Homo sapiens, UniProt Q8IU85); experiment: DSF assay; type: binding; conditions: 20 µM compound
T2 construct: purchased in-house DSF panel (SGC-style construct names; the trailing A/B is a construct suffix)
T2 sequence (Q8IU85 whole entry): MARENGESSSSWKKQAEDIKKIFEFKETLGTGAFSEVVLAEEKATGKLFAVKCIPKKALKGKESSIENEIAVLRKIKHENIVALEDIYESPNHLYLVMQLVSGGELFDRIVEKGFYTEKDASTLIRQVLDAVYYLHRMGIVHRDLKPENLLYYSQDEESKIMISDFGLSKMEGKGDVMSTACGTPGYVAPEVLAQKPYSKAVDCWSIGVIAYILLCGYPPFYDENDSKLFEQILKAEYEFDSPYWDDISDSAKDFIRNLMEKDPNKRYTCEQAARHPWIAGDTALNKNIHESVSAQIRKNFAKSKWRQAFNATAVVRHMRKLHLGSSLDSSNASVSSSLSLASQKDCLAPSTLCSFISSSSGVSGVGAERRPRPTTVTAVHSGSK

[3] = biological target: T3, CAMK1GA (Homo sapiens, UniProt Q96NX5); experiment: DSF assay; type: binding; conditions: 20 µM compound
T3 construct: purchased in-house DSF panel (SGC-style construct names; the trailing A/B is a construct suffix)
T3 sequence (Q96NX5 23-277): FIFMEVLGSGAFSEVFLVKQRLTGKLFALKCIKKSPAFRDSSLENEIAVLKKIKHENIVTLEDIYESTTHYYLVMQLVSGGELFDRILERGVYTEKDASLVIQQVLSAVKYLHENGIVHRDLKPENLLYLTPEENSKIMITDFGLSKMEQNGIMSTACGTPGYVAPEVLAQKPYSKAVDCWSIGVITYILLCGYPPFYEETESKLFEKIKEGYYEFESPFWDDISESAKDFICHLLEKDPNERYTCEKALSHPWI

[4] = biological target: T4, EPHA2A (Homo sapiens, UniProt P29317); experiment: DSF assay; type: binding; conditions: 20 µM compound
T4 construct: purchased in-house DSF panel (SGC-style construct names; the trailing A/B is a construct suffix)
T4 sequence (P29317 596-900): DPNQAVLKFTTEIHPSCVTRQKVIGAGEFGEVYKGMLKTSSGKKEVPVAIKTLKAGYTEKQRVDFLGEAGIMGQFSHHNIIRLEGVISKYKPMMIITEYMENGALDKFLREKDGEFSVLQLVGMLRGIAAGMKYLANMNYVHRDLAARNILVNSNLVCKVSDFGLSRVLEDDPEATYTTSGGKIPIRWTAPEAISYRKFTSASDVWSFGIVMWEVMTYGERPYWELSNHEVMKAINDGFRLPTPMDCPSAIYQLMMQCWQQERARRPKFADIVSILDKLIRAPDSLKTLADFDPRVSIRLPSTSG

[5] = biological target: T5, FESA (Homo sapiens, UniProt P07332); experiment: DSF assay; type: binding; conditions: 20 µM compound
T5 construct: purchased in-house DSF panel (SGC-style construct names; the trailing A/B is a construct suffix)
T5 sequence (P07332 whole entry): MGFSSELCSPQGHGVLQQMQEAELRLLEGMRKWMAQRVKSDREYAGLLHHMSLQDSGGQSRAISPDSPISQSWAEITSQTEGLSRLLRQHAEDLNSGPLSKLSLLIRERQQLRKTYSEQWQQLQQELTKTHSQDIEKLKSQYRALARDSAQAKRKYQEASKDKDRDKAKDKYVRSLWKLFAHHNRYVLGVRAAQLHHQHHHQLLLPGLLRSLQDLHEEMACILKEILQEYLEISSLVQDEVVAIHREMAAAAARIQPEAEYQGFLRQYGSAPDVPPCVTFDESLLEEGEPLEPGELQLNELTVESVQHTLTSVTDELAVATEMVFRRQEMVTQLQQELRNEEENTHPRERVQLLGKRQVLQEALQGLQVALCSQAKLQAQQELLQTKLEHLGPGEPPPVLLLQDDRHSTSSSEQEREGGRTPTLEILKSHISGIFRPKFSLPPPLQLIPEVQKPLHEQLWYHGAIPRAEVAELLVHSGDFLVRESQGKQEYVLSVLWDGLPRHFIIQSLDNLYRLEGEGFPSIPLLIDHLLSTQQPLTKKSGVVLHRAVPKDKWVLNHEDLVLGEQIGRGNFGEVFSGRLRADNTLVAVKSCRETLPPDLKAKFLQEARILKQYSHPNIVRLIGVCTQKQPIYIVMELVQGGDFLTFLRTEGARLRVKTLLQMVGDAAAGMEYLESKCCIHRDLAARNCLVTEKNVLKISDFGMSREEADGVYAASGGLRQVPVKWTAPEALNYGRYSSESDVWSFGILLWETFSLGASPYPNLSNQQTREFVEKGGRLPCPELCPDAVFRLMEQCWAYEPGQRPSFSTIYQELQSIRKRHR

[6] = biological target: T6, FGFR2A (Homo sapiens, UniProt P21802); experiment: DSF assay; type: binding; conditions: 20 µM compound
T6 construct: purchased in-house DSF panel (SGC-style construct names; the trailing A/B is a construct suffix)
T6 sequence (P21802 458-770): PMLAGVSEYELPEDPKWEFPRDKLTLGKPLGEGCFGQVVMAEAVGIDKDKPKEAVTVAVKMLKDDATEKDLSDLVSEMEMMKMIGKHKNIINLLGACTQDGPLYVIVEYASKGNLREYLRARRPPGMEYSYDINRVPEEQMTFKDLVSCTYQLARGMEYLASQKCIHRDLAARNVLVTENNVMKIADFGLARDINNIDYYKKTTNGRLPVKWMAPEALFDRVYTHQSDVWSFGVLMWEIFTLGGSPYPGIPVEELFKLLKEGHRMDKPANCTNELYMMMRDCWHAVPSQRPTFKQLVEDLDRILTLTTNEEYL

[7] = biological target: GPRK5A (Homo sapiens, UniProt P34947); experiment: DSF assay; type: binding; conditions: 20 µM compound
GPRK5A, sequence (P34947 186-514 limits assumed): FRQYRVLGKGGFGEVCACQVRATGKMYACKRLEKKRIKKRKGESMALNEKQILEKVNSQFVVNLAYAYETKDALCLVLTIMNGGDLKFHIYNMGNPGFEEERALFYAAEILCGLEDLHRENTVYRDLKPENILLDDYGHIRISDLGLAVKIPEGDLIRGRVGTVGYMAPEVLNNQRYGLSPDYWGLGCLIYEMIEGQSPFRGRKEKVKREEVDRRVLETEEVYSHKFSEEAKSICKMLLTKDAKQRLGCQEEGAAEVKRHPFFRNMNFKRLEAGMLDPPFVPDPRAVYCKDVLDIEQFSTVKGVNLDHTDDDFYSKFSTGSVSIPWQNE

[8] = biological target: T7, PAK4A (Homo sapiens, UniProt O96013); experiment: DSF assay; type: binding; conditions: 20 µM compound
T7 construct: purchased in-house DSF panel (SGC-style construct names; the trailing A/B is a construct suffix)
T7 sequence (O96013 291-591): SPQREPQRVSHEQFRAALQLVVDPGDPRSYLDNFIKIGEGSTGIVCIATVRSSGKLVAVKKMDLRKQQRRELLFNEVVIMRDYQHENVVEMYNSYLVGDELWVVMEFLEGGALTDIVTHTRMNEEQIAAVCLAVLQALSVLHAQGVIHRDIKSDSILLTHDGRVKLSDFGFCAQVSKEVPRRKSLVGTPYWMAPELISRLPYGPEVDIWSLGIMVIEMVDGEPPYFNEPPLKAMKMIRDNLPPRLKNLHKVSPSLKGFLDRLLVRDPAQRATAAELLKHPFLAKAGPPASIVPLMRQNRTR

[9] = biological target: T8, PLK4A (Homo sapiens, UniProt O00444); experiment: DSF assay; type: binding; conditions: 20 µM compound
T8 construct: purchased in-house DSF panel (SGC-style construct names; the trailing A/B is a construct suffix)
T8 sequence (O00444 2-275): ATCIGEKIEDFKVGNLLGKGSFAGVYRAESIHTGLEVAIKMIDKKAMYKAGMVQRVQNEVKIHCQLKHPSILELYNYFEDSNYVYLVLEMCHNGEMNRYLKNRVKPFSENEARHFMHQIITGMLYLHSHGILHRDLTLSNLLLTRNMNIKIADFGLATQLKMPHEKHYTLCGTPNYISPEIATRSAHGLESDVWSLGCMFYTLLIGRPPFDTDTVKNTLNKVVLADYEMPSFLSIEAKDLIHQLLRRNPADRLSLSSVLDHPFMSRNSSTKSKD

[10] = biological target: T9, STK4A (Homo sapiens, UniProt Q13043); experiment: DSF assay; type: binding; conditions: 20 µM compound
T9 construct: purchased in-house DSF panel (SGC-style construct names; the trailing A/B is a construct suffix)
T9 sequence (Q13043 1-311): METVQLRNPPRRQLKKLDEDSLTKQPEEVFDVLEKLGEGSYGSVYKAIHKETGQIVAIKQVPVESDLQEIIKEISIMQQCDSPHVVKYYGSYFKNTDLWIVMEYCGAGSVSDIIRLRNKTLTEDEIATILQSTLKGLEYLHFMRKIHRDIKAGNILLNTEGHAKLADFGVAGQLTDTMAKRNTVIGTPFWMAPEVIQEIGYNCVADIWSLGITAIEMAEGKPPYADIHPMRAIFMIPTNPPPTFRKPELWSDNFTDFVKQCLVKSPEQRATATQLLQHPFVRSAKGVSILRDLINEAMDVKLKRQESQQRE

[11] = test system: TAF1A; experiment: DSF assay; type: binding; conditions: 20 µM compound
[12] = biological target: T10, TLK1A (Homo sapiens, UniProt Q9UKI8); experiment: DSF assay; type: binding; conditions: 20 µM compound
T10 construct: purchased in-house DSF panel (SGC-style construct names; the trailing A/B is a construct suffix)
T10 sequence (Q9UKI8 456-734): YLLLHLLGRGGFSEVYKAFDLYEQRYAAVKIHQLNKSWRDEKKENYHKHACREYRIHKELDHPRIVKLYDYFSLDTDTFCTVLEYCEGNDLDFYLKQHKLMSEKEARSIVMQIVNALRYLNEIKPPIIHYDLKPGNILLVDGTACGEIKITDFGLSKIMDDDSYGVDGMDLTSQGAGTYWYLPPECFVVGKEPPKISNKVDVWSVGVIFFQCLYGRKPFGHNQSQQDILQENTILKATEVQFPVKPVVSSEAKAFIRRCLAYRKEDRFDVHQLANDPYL

SMILES	AURKA protein levels (Western blot) [1]	ΔTm at 20 µM [2] [°C]	ΔTm at 20 µM [3] [°C]	ΔTm at 20 µM [4] [°C]	ΔTm at 20 µM [5] [°C]	ΔTm at 20 µM [6] [°C]	ΔTm at 20 µM [7] [°C]	ΔTm at 20 µM [8] [°C]	ΔTm at 20 µM [9] [°C]	ΔTm at 20 µM [10] [°C]	ΔTm [11] [°C]	ΔTm at 20 µM [12] [°C]
Cc1ncsc1-c1ccc(CNC(=O)[C@@H]2C[C@H](O)CN2C(=O)[C@@H](NC(=O)CCOCCOCCOCCN2CCN(c3cc(Nc4cc(C5CC5)[nH]n4)nc(Nc4ccc(CC#N)cc4)n3)CC2)C(C)(C)C)cc1 [4-a^neg]	no effect on AURKA levels											
Cc1ncsc1-c1ccc(CNC(=O)[C@@H]2C[C@@H](O)CN2C(=O)[C@@H](NC(=O)CCOCCOCCOCCOCCN2CCN(c3ccc(Nc4ncc(Cl)c(Nc5ccccc5C(N)=O)n4)cc3)CC2)C(C)(C)C)cc1 [6-b]	only a weak reduction in AURKA levels											
Cc1ncsc1-c1ccc(CNC(=O)[C@@H]2C[C@@H](O)CN2C(=O)[C@@H](NC(=O)CCOCCOCCOCCN2CCN(c3cc(Nc4cc(C5CC5)[nH]n4)nc(Nc4ccc(CC#N)cc4)n3)CC2)C(C)(C)C)cc1 [4-a]	only a weak reduction in AURKA levels											
CCOC(=O)c1cc(Nc2cc(C3CC3)[nH]n2)nc(Nc2ccc(CC#N)cc2)n1 [compound 5]		3.94	1.53	6.12	3.17	6.36	1.7	7.87	13.2	8.99	0.35	5.4
CC(C)(C)OC(=O)NCCCOCCOCCOCCCNC(=O)c1cc(Nc2cc(C3CC3)[nH]n2)nc(Nc2ccc(CC#N)cc2)n1 [5-L]		3.86	3.37	4.48	2.67	3.37	2.55	9.26	11.6	7.44	0.26	4.52
Cc1ncsc1-c1ccc(CNC(=O)[C@@H]2C[C@H](O)CN2C(=O)[C@@H](NC(=O)CCOCCOCCOCCOCCN2CCN(c3ccc(Nc4ncc(Cl)c(Nc5ccccc5C(N)=O)n4)cc3)CC2)C(C)(C)C)cc1 [6-b^neg]	no effect on AURKA levels											
CC(C)(C)OC(=O)NCCOCCOCCOCCOCCC(=O)N1CCN(c2cc(Nc3cc(C4CC4)[nH]n3)nc(Nc3ccc(CC#N)cc3)n2)CC1 [4-L]		2.24	0.98	8.99	4.19	7.61	2.06	11	16.1	9.02	-0.59	3.45
